Experiment: gradient 5% acetonitrile 3 min, to 50% in 2 min, to 85% in 15 min, held 3 min, 100 µL/min
Settings: column: Zorbax Extend-C18 2.1 x 50 mm; eluents: water / acetonitrile, 0.1% formic acid
Outline: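 Retention times come from adduct peaks that were picked computationally and then checked by hand. The standards, pure and pooled in mixtures of ~100 molecules, were run on a Zorbax Extend-C18 column (2.1 × 50 mm, 1.8 μm) at 100 μL/min with water and acetonitrile, each with 0.1% formic acid. Detection was by quadrupole time-of-flight mass spectrometry in positive and negative ionization mode, with a dead volume of 40 μL and a dwell volume of 900 μL.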

SMILES | RP-LC retention time [s]
COc1ccc(-c2cc(N)n[nH]2)c(OC)c1 | 595
CCOc1nc2ccccc2nc1N1CCCC(C(=O)N2CCN(c3ccccc3F)CC2)C1 (centres undefined) | 1330
Cc1cnc(-c2ccccc2)n1C1CCCN(S(=O)(=O)c2ccc3c(c2)OCCO3)C1 (centres undefined) | 712
CCNc1cc(N2CCCC(CCC(=O)Nc3ccc(OC)cc3)C2)ncn1 (centres undefined) | 659
COCCN(Cc1ccncc1)S(=O)(=O)c1ccc(-c2ccccc2)cc1 | 630
CC1CCCCN1S(=O)(=O)c1ccc2c(c1)CCC(=O)N2CC(=O)NCc1ccccc1 (centres undefined) | 876
COc1ccc(S(=O)(=O)N2CCC(C(=O)NCc3csc(-c4ccccc4)n3)CC2)cc1 | 885
O=C(c1nnc(-c2ccc(S(=O)(=O)N3CCOCC3)cc2)o1)N1CCCC1 | 734
O=C(Nc1ccc(C2(C(=O)N3CCCCCC3)CCC2)cc1)C1CC1 | 844
COc1cc(OC)cc(C(=O)N2CCN=C2N2CCC(C)CC2)c1 | 694
Cc1nn(C)cc1CN1CCC[C@H]1c1nc(-c2ccccc2)n[nH]1 | 580
NC(=O)C1CCN(C(=O)C2CCN(S(=O)(=O)Cc3ccc(F)cc3)CC2)CC1 | 644
O=C(NCC1CCCO1)C1CCCN(c2ccc(Sc3ccc(Br)cc3)nn2)C1 (centres undefined) | 793
CCCCCNC(=O)c1ccc2c(c1)CCCN2S(C)(=O)=O | 846
CCCCNC(=O)C1CCCN(c2nnc(C)c3c(C)n(-c4ccc(Cl)cc4)nc23)C1 (centres undefined) | 746
O=c1ccn2c(n1)SC(c1ccccc1)C2 (centres undefined) | 655
O=C(COc1ccc(Cl)cc1Cl)NCC1CCN(C(=O)Oc2ccccc2)CC1 | 987
Cc1cc(Cl)ccc1S(=O)(=O)N1CCn2c(nnc2C2CCN(C(C)C)C2)C1 (centres undefined) | 629
CCCS(=O)(=O)c1ccc(NC2CCN(Cc3ccccc3)CC2)nn1 | 602
COCc1cc(=O)n(Cc2ccccc2F)c(N2CCCC2)n1 | 790
Cc1nc2cc(-c3noc(COc4ccc(Cl)cc4)n3)ccc2o1 | 1060
CCCC(C)C(=O)N1CCCN(C2=NS(=O)(=O)C(c3ccc(CC)cc3)=C2C)CC1 (centres undefined) | 935
O=C(Cn1nc2nc(N3CCCC3)ccn2c1=O)NCc1ccc(F)c(Cl)c1 | 670

SMILES | RP-LC retention time [s]
CCCCn1cc(S(=O)(=O)N2CCN(c3ccccc3F)CC2)c2cccnc21 | 1190
CC(C)N1CCN(Cc2ccc(C(=O)NC3CCCCCC3)cc2)C(=O)C1=O | 749
CCOC(=O)c1nc(NCC2CCN(Cc3ccccc3F)CC2)c2ccccc2n1 | 598
CCc1nc(-c2csc(S(=O)(=O)N3CCC(C(=O)N4CCC5(CC4)OCCO5)CC3)c2)no1 | 816
Cc1cnc(C)n1CC1CCN(C(=O)C2CCC2)C1 (centres undefined) | 565
c1cc(Cc2nc(-c3ccc4c(c3)ncn4CCN3CCCCC3)no2)cs1 | 632
COc1ccc(C(=O)O)nc1C | 552
CCc1ccc(NC(=O)Nc2ccc(NC(=O)N3CCCC(C(=O)NC)C3)cc2)cc1 (centres undefined) | 730
O=C(Nc1ccc(F)c(Cl)c1)C1CCCN(c2ncc(-c3ccc(F)cc3)cn2)C1 (centres undefined) | 1230
COc1ccc2[nH]c3c(c2c1)CCNC31CCN(S(=O)(=O)c2c(C)noc2C)CC1 | 675
CCn1nccc1-c1cccc(-c2noc(C3CCN(S(=O)(=O)c4ccc(Cl)cc4)CC3)n2)c1 | 932
O=C(c1ccc(-c2ccsc2)nc1)N1CCCCCC1 | 841
O=C(CSc1ccc(N2CCCC(C(=O)NC3CC3)C2)nn1)NCc1ccc(C(F)(F)F)cc1 (centres undefined) | 694
O=C(NCCc1ccco1)C1CCCN(C(=O)c2cccn2-c2cccnc2)C1 (centres undefined) | 660
O=C(Nc1ccccc1Cl)C1CN(S(=O)(=O)C2CC2)CC12CCCCC2 (centres undefined) | 1020
CCCCN(CCCC)c1nc(-c2ccccc2)nc2ccccc12 | 976
O=C(Nc1ccc(C2=NCCCN2)cc1)Nc1ccc(C2=NCCCN2)cc1 | 581
Cc1noc(C)c1S(=O)(=O)N1CCC(Cc2nncn2-c2ccccc2)CC1 | 780
CCc1nnc2nc(N3CCN(C(=O)c4ccc5c(c4)OCO5)CC3)cc(C)n12 | 611
COc1ccc(CNS(=O)(=O)c2cc3c(s2)CCN(C(=O)C2CC2)C3)cc1 | 812
O=C(C1CCN(c2cnn(Cc3ccccc3)c(=O)c2)CC1)N1CCCCC1 | 761
CCOC(=O)c1c(S(=O)(=O)N2CCC(C(=O)Nc3ccc(F)cc3C)CC2)c(C)n(CC)c1C | 885
O=C(c1cccc(OC(F)(F)F)c1)N1CCN(c2cc(-c3cccs3)[nH]n2)CC1 | 828

Now from value to compound:

RP-LC retention time [s] | SMILES
687 | COCCNC(=O)c1nnc(-c2ccc(S(=O)(=O)N(C)C)cc2)o1
910 | Cc1ccc(F)cc1S(=O)(=O)N1CCC(n2c(-c3ccco3)nc3cccnc32)C1 (centres undefined)
705 | Cc1ncn(CC(=O)Nc2cccc(Cl)c2)c(=O)c1C
734 | Cc1csc(C(=O)NCC2CCN(C(=O)COc3ccccc3)CC2)c1
935 | CC(=O)N1CCc2cc(S(=O)(=O)C(C)CC(=O)N3CCN(c4cccc(C)c4C)CC3)ccc21 (centres undefined)
1020 | COc1cccc(-n2nc(-c3nc(-c4ccccn4)no3)c3ccccc3c2=O)c1
611 | CCCNC(=O)Cc1cn(CC)c2ncccc12
640 | CCOc1ccccc1NC(=O)CN1C(=O)C(O)(c2cccc(C)c2)c2ccccc21 (centres undefined)
754 | CCCc1noc(-c2cccnc2N2CCCN(Cc3ccc(Cl)cc3)CC2)n1
747 | Cc1ccn2c(NC(=O)c3ccc4ccccc4c3)c(-c3ccccc3)nc2c1
1330 | CCn1cc(-c2nc(C(=O)Nc3ccc(Cl)cc3)cs2)c2cccnc21
678 | COc1ccc(CNC(=O)NCc2nnnn2-c2ccc(F)c(F)c2)cc1OC
1040 | CCOC(=O)CNC(=O)Nc1ccc(-c2nc(-c3cc(C)ccc3C)co2)cc1
814 | CCOC(=O)c1nnn(C(CC)C(=O)Nc2ccc(OC)cc2)c1C(=O)OCC (centres undefined)
856 | Cc1ccc(CNC(=O)C2(C)CN(S(C)(=O)=O)CC(=O)N2CCc2ccccc2)cc1 (centres undefined)
603 | CC(C)C1c2nccn2CCCN1C(=O)c1ccc2c(c1)OCO2 (centres undefined)
867 | COc1ccc(CNC(=O)c2csc(-c3cn(C)c4ncccc34)n2)cc1
802 | COc1ccc(NC2=NS(=O)(=O)C(c3ccccc3)=C2C)cc1OC
580 | COc1cccc2c(=O)c(NC(=O)N3CCCC(C(N)=O)C3)c[nH]c12 (centres undefined)
1110 | COc1cc(NC(=O)c2cn(-c3cc(N4CCC(C)CC4)ncn3)cn2)cc(OC)c1
1140 | Cc1ccc(-c2nc3cnccn3c2Nc2ccc(C(C)C)cc2)cc1
821 | Cc1ccc(C)c(NC(=O)C2CCCN(S(=O)(=O)c3c[nH]c(C(=O)N4CCCC4)c3)C2)c1 (centres undefined)

RP-LC retention time [s] | SMILES
824 | CSc1cccc(NC(=O)NC2CCN(c3ccc(F)cc3)C2=O)c1 (centres undefined)
901 | COC(=O)c1cc(S(=O)(=O)N2CCCC2C(=O)Nc2cc(C)ccc2C)cn1C (centres undefined)
930 | Cc1ccc(NC(=O)Cn2cccc2-c2nnc(C3CC3)o2)c(Cl)c1
682 | CCN1CCN(Cc2ccc(C(=O)NCc3cc(F)cc(F)c3)cc2)C(=O)C1=O
832 | Cc1cccc(OCc2nc(CCN(C)C(=O)NCc3ccccc3)no2)c1
614 | COc1ccc(NC(=O)CN2CCc3[nH]c4c(C)ccc(C)c4c(=O)c3C2)cc1OC
797 | Cc1ccc(C)c(N2CCN(C(=O)c3cn4cc(C)ccc4n3)CC2)c1
803 | Cc1cc([N+](=O)[O-])ccc1NC(=O)c1ccc(-n2cnnn2)cc1
1090 | Cc1ccc(-c2csc(NC(=O)CC(C)C)n2)c(C)c1
725 | Cc1ccc(NC(=O)c2sc3nc[nH]c(=O)c3c2C)c(C)c1
756 | COc1ccc(S(=O)(=O)NCc2cccnc2-c2cccc(C)c2)cc1Cl
750 | COc1ccc(C2(C)NC(=O)N(CC(=O)N3CCc4ccccc43)C2=O)cc1 (centres undefined)
556 | O=C(NCc1nc2ccccc2[nH]1)c1coc(NC(=O)c2cccs2)n1
830 | COC(=O)c1cc2c(=O)n(-c3ccccc3Cl)ccc2nc1C
742 | Cc1cc(C)n(-c2ccnc(N3CCC(C(=O)NCc4ccco4)CC3)n2)n1
840 | O=C(Cn1c(=O)c2cc(-c3ccco3)nn2c2ncccc21)Nc1ccc(F)cc1F
661 | CC1(C(=O)NC2CCCCCC2)Cn2c(cc3occc32)C(=O)N1Cc1cccnc1 (centres undefined)
736 | CCn1cc(-c2ccc(C)cc2)cc1C(=O)NC(C)c1cccnc1 (centres undefined)
675 | O=C(NCC(c1ccc2c(c1)OCO2)N1CCOCC1)C(=O)Nc1ccc(F)cc1F (centres undefined)
768 | COc1ccc(OC)c(NC(=O)c2cc(C(C)(C)C)n3nccc3n2)c1
702 | Cc1cc(C)cc(NC(=O)C2(C)Oc3cccnc3NC2=O)c1 (centres undefined)

Reference: the METLIN SMRT retention time set (Domingo-Almenara et al. 2019)
